Source: US8653264B2, “Crystal of erlotinib base and the preparation method thereof” (Zhejiang Huahai Pharmaceutical Co., Ltd., priority 2010, dated 2014)

Experiments:
[1] = hygroscopicity experiment; assay type: physicochemical; conditions: crystal form IV of erlotinib base; conditions not given
stability experiment = assay type: physicochemical; conditions: crystal form IV of erlotinib base; conditions not given

C#Cc1cccc(Nc2ncnc3cc(OCCOC)c(OCCOC)cc23)c1 [Form IV, N-(3-ethynylphenyl)-6,7-bis(2-methoxyethoxy)quinazolin-4-amine]
change in the hygroscopicity experiment [1]: did not significantly change | change in the stability experiment (stability experiment): did not significantly change
